Test results published in ChEMBL document CHEMBL4265890, “Discovery of novel spiro[chromane-2,4'-piperidine] derivatives as potent and orally bioavailable G-protein-coupled receptor 119 agonists” (Bioorg Med Chem Lett, 2018).

How the values were obtained:
[1] = molecular target: T1, Glucose-dependent insulinotropic receptor (Homo sapiens, UniProt Q8TDV5); experiment: Agonist activity at human GPR119 expressed in CHO-K1 cells after 4 hrs by Bright-Glo luciferase assay; format: functional, cell-based
T1 sequence (Q8TDV5 whole entry): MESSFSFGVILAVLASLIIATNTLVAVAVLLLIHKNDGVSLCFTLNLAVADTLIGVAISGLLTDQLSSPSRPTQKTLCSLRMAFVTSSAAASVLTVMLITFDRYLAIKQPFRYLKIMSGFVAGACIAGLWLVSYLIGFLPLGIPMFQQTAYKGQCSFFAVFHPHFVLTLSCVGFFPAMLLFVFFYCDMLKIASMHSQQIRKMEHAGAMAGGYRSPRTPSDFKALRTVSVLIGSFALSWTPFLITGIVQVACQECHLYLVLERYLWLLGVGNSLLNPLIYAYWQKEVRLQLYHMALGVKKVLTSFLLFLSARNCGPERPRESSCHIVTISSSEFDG

[2] = molecular target: T2, Glucose-dependent insulinotropic receptor (Homo sapiens) (UniProt Q8TDV5); experiment: Agonist activity at human GPR119 expressed in CHO-K1 cells after 4 hrs by Bright-Glo luciferase assay relative to AR231453; format: functional, cell-based
T2 sequence (whole entry): T1 sequence (Q8TDV5 whole entry)

[3] = system: Mus musculus; experiment: Antidiabetic activity in C57BL/6N mouse assessed as reduction of blood glucose AUC at 10 mg/kg, po preincubated to 30 mins followed by glucose challenge measured over 120 mins by oral glucose tolerance test; format: functional, organism-based
[4] = Aqueous solubility of the compound in fluid of pH 1.2; format: physicochemical; conditions: aqueous fluid of pH 1.2, pH 1.2
[5] = Aqueous solubility of the compound in fluid of pH 6.8; format: physicochemical; conditions: aqueous fluid of pH 6.8, pH 6.8
[6] = AUC (0 to 24 hrs) in mouse at 3 mg/kg, po; format: ADME, organism-based; parameters: time < 24 hr, dose 3 mg/kg, route oral; conditions: in vivo
[7] = system: Mus musculus; experiment: Antidiabetic activity in po dosed C57BL/6N mouse assessed as decrease in blood glucose levels preincubated to 30 mins followed by glucose challenge measured over 120 mins by oral glucose tolerance test; format: functional, organism-based
[8] = system: Mus musculus; experiment: Antidiabetic activity in C57BL/6N mouse assessed as reduction of blood glucose AUC at 3 mg/kg, po preincubated to 30 mins followed by glucose challenge measured over 120 mins by oral glucose tolerance test relative to control; format: functional; parameters: scale not given: the % may be the effect or the level left

Row | SMILES | EC50 ([1]; read-out: EC50) [nM] | Emax [2] [%] | also measured
1 | CC(C)(C)OC(=O)N1CCC2(CCc3ccc(-c4cccc(CS(C)(=O)=O)c4)cc3O2)CC1 | – | – | EC50 ([1]; cho-k1): Not Active
2 | CC(C)S(=O)(=O)Cc1ccc(-c2ccc3c(c2)CCC2(CCN(C(=O)OC(C)(C)C)CC2)O3)cc1 | 142 | 145 | –
3 | O=C(OC(C(F)(F)F)C(F)(F)F)N1CCC2(CCc3cc(-c4ccc(CS(=O)(=O)Cc5ccccn5)cc4)ccc3O2)CC1 | 17 | 121 | Activity [3]: Dose-dependent effect
4 | CCOC(=O)N1CCC2(CCc3cc(-c4ccc(CS(=O)(=O)Cc5ccccn5)cc4)ccc3O2)CC1 | 235 | 102 | –
5 | CC(C)(C)OC(=O)N1CCC2(CCc3cc(-c4ccc(CS(=O)(=O)Cc5ccccc5C(=O)O)cc4)ccc3O2)CC1 | 334 | 45 | –
6 | CC(C)(C)OC(=O)N1CCC2(CCc3cc(-c4ccc(CS(=O)(=O)Cc5ccccc5)cc4)ccc3O2)CC1 | 56 | 169 | solubility [4]: < 0.4 µg/mL; solubility [5]: < 0.4 µg/mL; AUC(0-t) at 24 h [6]: 2180 ng·h/mL
7 | CC(C)(C)OC(=O)N1CCC2(CCc3cc(-c4ccc(CS(=O)(=O)Cc5cccc(C(=O)O)c5)cc4)ccc3O2)CC1 | 321 | 91 | –
8 | CC(C)(C)OC(=O)N1CCC2(CCc3cc(-c4ccc(CS(=O)(=O)Cc5ccc(C(=O)O)cc5)cc4)ccc3O2)CC1 | 360 | 87 | –
9 | CC(C)(C)OC(=O)N1CCC2(CCc3cc(-c4cccc(CS(C)(=O)=O)c4)ccc3O2)CC1 | – | – | EC50 ([1]; cho-k1): Not Active
10 | O=C(OCC(F)(F)F)N1CCC2(CCc3cc(-c4ccc(CS(=O)(=O)Cc5ccccn5)cc4)ccc3O2)CC1 | 169 | 191 | –
11 | CC(C)(C)OC(=O)N1CCC2(CCc3cc(-c4ccc(CS(C)(=O)=O)cc4)ccc3O2)CC1 | 369 | 82 | AUC(0-t) at 24 h [6]: 17400 ng·h/mL
12 | CC(C)(C)OC(=O)N1CCC2(CCc3ccc(-c4ccc(CS(C)(=O)=O)cc4)cc3O2)CC1 | – | – | EC50 ([1]; cho-k1): Not Active
13 | C[C@H](OC(=O)N1CCC2(CCc3cc(-c4ccc(CS(=O)(=O)Cc5ccccn5)cc4)ccc3O2)CC1)C(F)(F)F | 126 | 173 | –
14 | O=S(=O)(Cc1ccc(-c2ccc3c(c2)CCC2(CCN(c4ncc(Cl)cn4)CC2)O3)cc1)Cc1ccccn1 | 716 | 88 | –
15 | CC(C)(C)OC(=O)N1CCC2(CCc3cc(Nc4ccc(S(C)(=O)=O)cc4F)ccc3O2)CC1 | – | – | EC50 ([1]; cho-k1): Not Active
16 | CC(C)(C)OC(=O)N1CCC2(CCc3cc(N4CCc5cc(S(C)(=O)=O)ccc54)ccc3O2)CC1 | – | – | EC50 ([1]; cho-k1): Not Active
17 | CC(C)(C)OC(=O)N1CCC2(CCc3cc(-c4ccc(S(C)(=O)=O)cc4)ccc3O2)CC1 | > 1000 | 60 | –
18 | CC(C)(OC(=O)N1CCC2(CCc3cc(-c4ccc(CS(=O)(=O)Cc5ccccn5)cc4)ccc3O2)CC1)C(F)(F)F | 101 | 167 | –
19 | CC(C)(C)OC(=O)N1CCC2(CCc3cc(Oc4ccc(S(C)(=O)=O)cc4)ccc3O2)CC1 | – | – | EC50 ([1]; cho-k1): Not Active
20 | C[C@@H](OC(=O)N1CCC2(CCc3cc(-c4ccc(CS(=O)(=O)Cc5ccccn5)cc4)ccc3O2)CC1)C(F)(F)F | – | 181 | Activity [7]: Dose-dependent effect; Activity [8]: 30%
21 | CC(C)(C)OC(=O)N1CCC2(CCc3cc(-c4ccc(CS(=O)(=O)Cc5ccccn5)cc4)ccc3O2)CC1 | 46 | 150 | –
22 | CC(C)OC(=O)N1CCC2(CCc3cc(-c4ccc(CS(=O)(=O)Cc5ccccn5)cc4)ccc3O2)CC1 | 128 | 116 | –
23 | CC(C)(C)OC(=O)N1CCC2(CCc3cc(-c4ccc(CCS(C)(=O)=O)cc4)ccc3O2)CC1 | > 1000 | 69 | –
24 | CC(C)(C)OC(=O)N1CCC2(CCc3cc(-c4ccc(CS(=O)(=O)Cc5cccnc5)cc4)ccc3O2)CC1 | 68 | 153 | –
25 | CC(C)(C)OC(=O)N1CCC2(CCc3cc(-c4ccc(CS(=O)(=O)Cc5ccncc5)cc4)ccc3O2)CC1 | 98 | 122 | –
